Measured values as given in patent EP1743642A1 (priority 2005, dated 2007).

What was measured:
[1] = In-vivo testing for regulation of triglycerides in blood, diet-induced obese mice (study VI); details: high fat diet, 30 mg/kg/day p.o., day 28 after beginning of the treatment; p<0.005 vs. vehicle
Experimental: In a second set of experiments carried out similar to the tests shown above the TG (triglyceride) levels of diet-induced obese mice in blood were determined. Mice receiving a high fat diet were - after a feeding period of […] - either treated p.o. with vehicle (0,5 % HPMC) or with the compound according to example 0 (30 mg/kg/day p.o.). TG levels in blood were determined on day 28 after beginning of the treatment.

[2] = In-vivo testing for regulation of triglycerides in blood, obese mice on high fat diet (study V); design: species or system male mice B6 Lep ob/ob; details: 30 mg/kg/day po, 14 days
Excerpt: The study was done using six weeks old male mice B6 Lep ob/ob, obtained from Charles River (France). Mice were divided in 3 groups : I (control), II (vehicle), III (example 0).
The animals of the group I received the standard diet (D-12450B, Research Diets, NJ, USA).
The animals of the groups II and III were fed with a High Fat Diet (D-12492, Research Diets, NJ, USA), in both cases for 7 weeks (References 1 and 2).
The animals of the groups III were fed with a High Fat Diet (D-12492, Research Diets, NJ, USA), in both cases for 7 weeks (References 1 and 2).
At the end of the feeding period of 7 weeks, it was started the treatment period (14 days): Group II mice received the vehicle (10 ml/kg/day, po, of the aqueous solution of acacia gum, 5% W/V). Group III was administered with 30 mg/kg/day, po, of the inventive compound 5-(4-chlorophenyl)-1-(2,4-dichlorophenyl)-4,5-dihydro-pyrazole-3-carboxylic acid according to Example 0. Group I didn't received any treatment. The three groups of mice had the same diet than in the previous period.
At the end of the 14 days period of treatment, the blood levels of triglicerides of the animals were determined. […]

[3] = biological target: T1, transfected human CB2 receptors (Homo sapiens, UniProt P34972); experiment: In-vitro determination of affinity to CB2 receptor (radioligand [3H]-CP55940); type: binding
T1 construct: purchased Receptor Biology, Inc
T1 sequence (P34972 whole entry): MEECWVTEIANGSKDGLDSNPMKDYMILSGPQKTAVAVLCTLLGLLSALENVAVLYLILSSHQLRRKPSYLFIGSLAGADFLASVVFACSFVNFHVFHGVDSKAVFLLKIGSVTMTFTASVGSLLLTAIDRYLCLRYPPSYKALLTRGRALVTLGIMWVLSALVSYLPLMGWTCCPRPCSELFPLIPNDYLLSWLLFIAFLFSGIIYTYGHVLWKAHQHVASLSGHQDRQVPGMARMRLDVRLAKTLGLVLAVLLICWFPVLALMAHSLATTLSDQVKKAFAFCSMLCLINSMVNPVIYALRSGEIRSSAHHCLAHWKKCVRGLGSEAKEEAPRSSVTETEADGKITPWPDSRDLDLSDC
Experimental: (§1) I. In-vitro determination of affinity to CB1/CB2-Receptors
(§2) The in-vitro determination of the affinity of the inventive substituted pyrazoline compounds to CB1/CB2-Rezeptors is carried out as described in the publication of Ruth A. Ross, Heather C. Brockie et al., "Agonist-inverse agonist characterization at CB1 and CB2 cannabinoid receptors of L-759633, L759656 and AM630", British Journal of Pharmacology, 126, 665-672, (1999), whereby the transfected human CB1 and CB2 receptors of Receptor Biology, Inc. are used. The radioligand used for both receptors is [^3H]-CP55940. The respective parts of the description is hereby incorporated by reference and forms part of the present disclosure.

[4] = biological target: T2, transfected human CB1 receptors (Homo sapiens, UniProt P21554); experiment: In-vitro determination of affinity to CB1 receptor (radioligand [3H]-CP55940); type: binding
T2 construct: purchased Receptor Biology, Inc
T2 sequence (P21554 whole entry): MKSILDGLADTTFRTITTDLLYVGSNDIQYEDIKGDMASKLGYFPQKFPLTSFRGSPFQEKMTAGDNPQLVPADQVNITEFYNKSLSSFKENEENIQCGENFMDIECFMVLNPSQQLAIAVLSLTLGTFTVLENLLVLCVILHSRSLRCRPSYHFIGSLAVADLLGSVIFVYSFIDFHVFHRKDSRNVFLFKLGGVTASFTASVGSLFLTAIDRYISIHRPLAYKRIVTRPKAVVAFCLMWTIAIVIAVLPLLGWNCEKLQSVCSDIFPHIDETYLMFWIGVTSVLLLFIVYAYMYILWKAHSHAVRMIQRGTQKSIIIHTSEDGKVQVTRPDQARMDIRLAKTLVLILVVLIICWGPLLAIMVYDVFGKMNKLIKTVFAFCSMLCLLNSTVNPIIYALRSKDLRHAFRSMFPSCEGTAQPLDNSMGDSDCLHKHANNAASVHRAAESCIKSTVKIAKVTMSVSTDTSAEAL
Experimental: as §1, §2

[5] = test system: cannabinoid receptors; experiment: Mouse tetrad model, agonistic effect; type: in vivo, Male NMRI mice; design: key to Agonistic effect D: Sedation: % of sedation = mean score (0–3 scale)/3 × 100; details: 5 mg/kg i.v.
Excerpt: (§3) Substances with affinity for cannabinoid receptors are known to produce a wide range of pharmacological effects. It is also known that intravenous administration of a substance with affinity for cannabinoid receptors in mice produces analgesia , hypothermia, sedation and catalepsy. Individually, none of these effects can be considered as proof that a tested substance has affinity for cannabinoid-receptors, since all of these effects are common for various classes of centrally active agents. However, substances, which show all of these effects, i.e. substances that are active in this so-called tetrad model are considered to have affinity for the cannabinoid receptors. It has further been shown that cannabinoid receptor antagonists are higly effective in blocking the effects of a cannabinoid agonist in the mouse tetrad model.
(§4) The tetrad model is described, for example, in the publication of A. C. Howlett et al, International Union of Pharmacology XXVII. Classification of Cannabinoid Receptors, Pharmacol Rev 54, 161-202 , 2002 and David R. Compton et al., "In-vivo Characterization of a Specific Cannabinoid Receptor Antagonist (SR141716A) :Inhibition of Tetrahydrocannbinol- induced Responses and Apparent Agonist Activity", J. Pharmacol. Exp. Ther. 277 , 2, 586-594, 1996. The corresponding parts of the description are hereby incorporated by reference.
(§5) Male NMRI mice with a weight of 20-30 g (Harlan, Barcelona, Spain) are used in all of the following experiments.
(§6) Before testing in the behavioral procedures given below, mice are acclimatized to the experimental setting. Pre-Treatment control values are determined for analgesia hot plate latency (in seconds), rectal temperature, sedation and catalepsy.
(§7) In order to determine the agonistic activty of the substance to be tested, the mice are injected intravenously with the substance to be tested or the vehicle alone. 15 minutes after injection, latency in hot plate analgesia is measured.
(§8) Rectal temperature, sedation and catalepsy are measured 20 minutes after injection.
(§9) The hot plate analgesia is determined according to the method described in Woolfe D. et al. "The evaluation of analgesic action of pethidine hydrochloride (Demerol)", J. Pharmacol. Exp. Ther. 80, 300-307,1944. The respective description is hereby incorporated by reference and forms part of the present disclosure.
(§10) The mice are placed on a hot plate (Harvard Analgesimeter) at 55 ± 0.5 °C until they show a painful sensation by licking their paws or jumping and the time for these sensations to occur is recorded. This reading is considered the basal value (B). The maximum time limit the mice are allowed to remain on the hot plate in absence of any painful response is 40 seconds in order to prevent skin damage. This period is called the cut-off time (PC).
(§11) Fifteen minuts after the administration of the substance to be tested, the mice are again placed on the hot plate and the afore described procedure is repeated. This period is called the post-treatment reading (PT).
(§12) The degree of analgesia is calculated from the formula : %MPEof Analgesia = (PT−B)/(PC−B) × 100 [formula] MPE = Maximum possible effect.
(§13) Sedation and ataxia is determined according to the method described in Desmet L. K. C. et al. "Anticonvulsive properties of Cinarizine and Flunarizine in Rats and Mice", Arzneim. -Forsch. (Frug Res) 25, 9, 1975. The respective description is hereby incorporated by reference and forms part of the present disclosure.
The chosen scoring system is • 0: no ataxia; • 1: doubful; • 2: obvious calmness and quiet; • 3 pronounced ataxia; • prior to as well as after treatment.
The percentage of sedation is determined according to the formula: %of sedation = arithmetic mean/3 × 100 [formula] […]

[6] = test system: cannabinoid receptors; experiment: Mouse tetrad model, antagonistic effect against Win 55212-2; type: in vivo, Male NMRI mice; details: 5 mg/kg i.v. prior to Win 55212-2 in a dose of 1,25mg/kg i.v.
Excerpt: as §3, §4, §5, §6, §7, §8
In order to determine the antagonistic activity the identical procedure is used as for the determination of the agonistic effects, but with the difference that the substance to be evaluated for its antagonistic activity is injectected 5 minutes before the intravenous injection of 1.25 mg/kg Win-55,212 a known cannabinoid-receptor agonist.
as §9, §10, §11, §12, §13
The chosen scoring system is • 0: no ataxia; • 1: doubful; • 2: obvious calmness and quiet; • 3 pronounced ataxia; • prior to as well as after treatment. […]

Row | Compound | TG (triglyceride) levels [1] | Triglicerides, whole blood levels (mg/dl) ([2]; N.S. compared with Group I) | Relative levels ([2]; triglicerides relative to Group I (standard diet = 100%)) | Ki [3] | Ki [4] | Agonistic effect A: Hot-Plate test [5] | Agonistic effect B: Hypothermia [5] | Agonistic effect C: Catalepsy [5] | Agonistic effect D: Sedation [5] | Antagonistic Effect A: Hot-Plate test [6] | Antagonistic Effect B: Hypothermia [6] | Antagonistic Effect C: Catalepsy [6] | Antagonistic Effect D: Sedation [6]
1 | O=C(O)C1=NN(c2ccc(Cl)cc2Cl)C(c2ccc(Cl)cc2)C1 (stereo not shown) [Example 0, 5-(4-chlorophenyl)-1-(2,4-dichlorophenyl)-4,5-dihydro-pyrazole-3-carboxylic acid] | 0.80 ± 0.07 mmol/L | 67.5 (N.S.) mg/dl | 110.6% | – | – | – | – | – | – | – | – | – | –
2 | O=C(NN1CCCCC1)C1=NN(c2ccc(Cl)cc2Cl)C(c2ccc(Cl)cc2)C1 (stereo not shown) [Example 1, N-piperidinyl-5-(4-chlorophenyl)-1-(2,4-dichlorophenyl)-4,5-dihydro-1H-pyrazole-3-carboxamide] | – | – | – | > 1000 nM | < 25 nM | 0 | 0 | 0 | 0 | 74 | 100 | 100 | 100
3 | O=C(C1=NN(c2ccc(Cl)cc2Cl)C(c2ccc(Cl)cc2)C1)N1CCCCC1 (stereo not shown) [Example 5, [5-(4-Chloro-phenyl)-1-(2,4-dichloro-phenyl)-4,5-dihydro-1H-pyrazol-3-yl]-piperidin-1-yl-methanone] | – | – | – | ~1000 nM | – | 0 | 50 | 0 | 0 | 50 | 40 | 20 | 20
